Reference: article PMC8868518, “Exploring Titanium(IV) Complexes as Potential Antimicrobial Compounds” (Antibiotics, 2022)

Legend:
[1] = pH 4; cited from earlier work
[2] = test system: human red blood cells; assay: CO-ADD hemolysis assay; format: cell-based; conditions: all concentrations examined (0.25-32 μg/mL), 1 h; HC10 and HC50 could not be measured
Procedure: The compounds were used as received by the CO-ADD. For the screenings, most compounds were dissolved to a stock concentration of 10 mg/mL in DMSO. K2[Ti(Citrate)3], Na3Citrate, and K2[TiO(Oxalate)2] were dissolved in warm water. [Cu(Deferasirox)(H2O)]2 was dissolved in pyridine after its solubility was determined to be excellent in pyridine due to coordination of the solvent to the metal producing [Cu(Deferasirox)(pyridine)]2 in situ. […] Each sample concentration was prepared in 384-well plates, non-binding surface plate (NBS; Corning 3640) for each bacterial/fungal strain, tissue-culture treated (TC-treated; Corning 3712/3764), black for mammalian cell types and polypropylene 384-well (PP; […] All sample preparation was conducted using liquid handling robots. Human whole blood (Australian Red Cross) was washed three times with three volumes of 0.9% NaCl and resuspended in a concentration of 0.5 × 10^8 cells per mL, determined by manual cell count in a Neubauer hemocytometer. Washed cells were added to the compound-containing plates (384-well polypropylene plates (PP); Corning 3657) for a final volume of 50 μL, shaken and incubated for 1 h at 37 °C. […]

[3] = test system: MRC-5 cells; conditions: cited from earlier work

SMILES	solution stability (in words) [1]	hemolysis of human red blood cells (in words) [2]	IC50 ± SD [3]	IC50 ([3]; read-out: IC50 ± SD)
[K+].[K+].c1ccc2cc3c(cc2c1)[O][Ti-2]12([O]3)([O]c3cc4ccccc4cc3[O]1)[O]c1cc3ccccc3cc1[O]2 [Compound 8, K2[Ti(Naphthalene-2,3-diolate)3]]	highly stable in solution	–	–	–
O=C(O)c1ccc(-n2nc3nc2-c2ccccc2[O][Ti]2([O]c4ccccc4-3)[O]c3ccccc3-c3nc(n(-c4ccc(C(=O)O)cc4)n3)-c3ccccc3[O]2)cc1 [Compound 10, titanium(IV) bis(deferasirox)]	highly stable in solution	insignificant antiproliferative effect	19.8 ± 0.8 µg/mL	25 ± 1 µM
O=C([O-])C(=O)O.O=C([O-])C(=O)O.[K+].[K+].[O]=[Ti] [Compound 14, Potassium dioxalatoxotitanate(IV) dihydrate]	–	insignificant antiproliferative effect	–	–
